Consider 1 molecule from patent publication US5959145A, “Fatty acid analog enzyme substrates” (priority 1993, dated 1999).

For one data set, the target named is T1, yeast NMT (Saccharomyces cerevisiae, UniProt P14743).
T1 construct: 11,000-fold purified preparation of yeast NMT; endogenous in cells; host or cells: yeast (enzyme purified from yeast, 11,000-fold)
T1 sequence (P14743 1-455): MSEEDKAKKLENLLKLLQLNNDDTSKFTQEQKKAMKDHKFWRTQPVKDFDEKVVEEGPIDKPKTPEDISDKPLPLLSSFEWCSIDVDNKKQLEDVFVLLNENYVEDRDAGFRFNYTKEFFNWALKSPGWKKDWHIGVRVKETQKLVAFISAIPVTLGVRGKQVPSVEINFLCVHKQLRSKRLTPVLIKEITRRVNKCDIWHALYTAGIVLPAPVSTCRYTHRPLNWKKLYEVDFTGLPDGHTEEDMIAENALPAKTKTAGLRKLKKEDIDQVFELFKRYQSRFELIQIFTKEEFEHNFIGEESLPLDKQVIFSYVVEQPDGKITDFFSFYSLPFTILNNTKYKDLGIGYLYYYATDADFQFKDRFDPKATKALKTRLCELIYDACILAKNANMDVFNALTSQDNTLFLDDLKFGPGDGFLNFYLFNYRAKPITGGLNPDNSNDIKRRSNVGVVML
In words: kinetic characterisation of fatty acid analogs as yeast NMT substrates. It counts as biochemical. The text has this:
Similar results were obtained using an 11,000-fold purified preparation of yeast NMT [Towler et al., Proc. Natl. Acad. Sci. USA 84, 2708-2712 (1987)].
Other illustrative examples of the oxy- and thio-substituted fatty acid analog substrate compounds of the invention were synthesized in Examples 6 to 14 and tested in Example 15 as substrates for the yeast NMT.
(§1) For these Examples, each analog synthesized is characterized by ^1 H and ^13 C NMR as well as mass spectroscopy. The analogs are then characterized kinetically as NMT substrates. Briefly, fatty acid analogs are converted to their CoA esters with Pseudomonas CoA ligase and incubated with the iodinated peptide GNAAS[^125 I]YRR and a source of NMT. […] The radiolabelled peptide is then used at concentrations which will lead to 50% enzyme saturation (i.e., at its Km) for the determination of fatty acid analog kinetic characteristics. Representative analogs with sulfur or oxygen in the backbone of the fatty acid chain serve as good substrates for NMT in vitro and will compete for incorporation of ^3 H labelled myri-state into yeast proteins in vivo. In addition, these analogs differ markedly in hydrophobicity from myri-state as measured both by C18 reverse phase HPLC elution profiles and by 2-octanol/water partition coefficients. The analog CH3 O(CH2)11 COOH, for example, partitions into water 20 fold better than myristate. It is believed that these analogs will be incorporated into mammalian acylproteins in vivo and that their incorporation into these proteins will drastically alter protein processing or targeting. It is further believed that the incorporation of fatty acid analogs of both myristate and palmitate into ester linked and phosphatidyl inositol glycan linked acylproteins will also dramatically alter their properties. Since many viral proteins and oncogenes are acylated, these compounds represent a new class of potential antiviral and antineoplastic agents.

The nature of data set [1]: C18 reverse phase HPLC elution of fatty acyl peptides (hydrophobicity). It counts as physicochemical. On the procedure:
The fatty acid analog acyl-peptide eluted 7 minutes earlier than the corresponding myristoyl peptide. The free peptide elutes in the void volume (3-5minutes).
This difference was evident when the HPLC elution characteristics of fatty acyl peptides were examined. The elution time of a particular acyl-peptide depends strongly on the peptide sequence as well as on the acyl chain attached to that peptide. For example, the elution times of fatty acyl derivatives of GNAAAARR are (in minutes) decanoic acid, 9; dodecanoic acid, 18; myristic acid, 24; and palmitic acid, 30. Elution times for fatty acyl derivatives of GNAAS[^125 I]YRR are 23 and 28 minutes for C12 and C14 fatty acids, respectively (FIG. 2). […] Such a change could alter the biological activity of myristoyl proteins.
as §1

Data set [2] can be described thus: growth, toxicity and total protein synthesis in yeast cells. It counts as cell-based. Conditions: s. cerevisiae bj405, vs control cells not exposed to exogenous fatty acid, read-out: reduction in total protein synthesis ([35S]methionine into TCA precipitable protein). On the procedure: Saccharomyces cerevisiae strain BJ405 [MATα, trpl, prbl, prcl, pep4-3; Hemmings et al., Proc. Natl. Acad. Sci. USA 78, 435-439 (1981)] (previously referred to as JR153) was grown to mid-log phase (OD660 nm =1.0-1.2) in YPD medium (1% yeast extract/2% Bactopeptone/2% Dextrose) at 30° C. in a rotary shaker water bath. Cells were pretreated with Cerulenin at 2 μg/ml for 15 minutes and then incubated for 20-45 minutes with unlabeled myristate, palmitate or fatty acid analog at 100 μM in the presence of either 5 μM [9,10-^3 H(N)]-myristate (22.4 Ci/mmol) or L-[^35 S]methionine (1106 Ci/mmol) at 30 μCi/ml of culture.
Cells were cooled on ice 5 minutes, pelleted at 10,000×g, then broken and extracted by the method of Towler et al., Proc. Natl. Acad. Sci. USA 83, 2812-2816 (1986). Total protein synthesis was assayed by trichloroacetic acid (TCA) precipitation. Proteins were separated by SDS-12% polyacrylamide gel electrophoresis, and [^3 H]fatty acid incorporation into cellular acyl-proteins was assayed by autoradiography followed by laser densitometry.

Structures are written as SMILES.

Broadly, the Km is the concentration of substrate that gives half-maximal velocity.

On to `CCCCCCCCCCCCCC(=O)O` [myristic acid, reference compound], for which, on yeast NMT (peptide GNAAS[125I]YRR varied, fatty acid analog at 15 μM, myristate control = 100%), the “Peptide Vm” value worked out at 100%. Moreover, the “Acyl CoA Vm” value at yeast NMT (radiolabelled peptide at its Km, analog varied, myristate control = 100%) turned out to be 100%. Besides, the Km on yeast NMT (radiolabelled peptide at its Km, analog varied, read-out: Acyl CoA Km) was 0.6 µM. Further, in data set [1] (C18 reverse phase HPLC, acyl derivative of GNAAS[125I]YRR, Table 2), the “Elution Time” value is 26 min. Also, the “elution time of fatty acyl derivative of GNAAAARR” value in data set [1] (reverse phase HPLC) was found to be 24 min. In addition, in data set [1] (reverse phase HPLC, FIG. 2, text), the “elution time of fatty acyl derivative of GNAAS[125I]YRR” value worked out at 28 min. The inhibition at 100 µM in data set [2] was 10 to 15%.
